The source of these data is patent publication US12162867B2, “Inhibitors of RNA helicase DHX9 and uses thereof” (ACCENT THERAPEUTICS, INC., priority 2022, dated 2024).

Structures are written as SMILES. A value given as a limit tells only on which side of the number the result lay.

What is called EC50 is the concentration that produces a half-maximal response.

The test system of one test is circBRIP1 in HCT116 cells. As to the kind of experiment: DHX9 circBRIP1 cellular target engagement TaqMan Multiplex assay (qPCR). Format: cell-based. The note with it: Homo sapiens, HCT-116, circBRIP1, HCT116 cells; * Taqman assay was used; read-out: DHX9 Cellular Target Engagement EC50. (In qPCR the cycle at which signal appears reflects the starting amount.)
For the compound `CS(=O)(=O)Nc1cc(Cl)cc(NC(=O)c2cc(-c3ncc(F)cn3)n(CC(F)(F)F)c2)c1` [Example 562], the EC50 stood at 0.543 µM.

Regarding `COc1cnc(-c2cc(C(=O)Nc3cc(Cl)cc(NS(C)(=O)=O)c3)cn2CC(F)(F)F)nc1` [Example 563], the EC50 is 0.327 µM.

On to `CS(=O)(=O)Nc1cc(Cl)cc(NC(=O)c2cc(-c3ncccc3F)n(CC(F)(F)F)c2)c1` [Example 564], for which the EC50 stood at 0.761 µM.

In the case of `CCS(=O)(=O)Nc1cc(Cl)cc(NC(=O)c2cc(-c3ncc(OC(C)(C)C)cn3)c(C)s2)c1` [Example 566], the EC50 was 0.156 µM.

For `Cn1cc(C(=O)Nc2cc(Cl)cc(NS(C)(=O)=O)c2)cc1-c1c(F)cc(F)c[n+]1[O-]` [Example 567], the EC50 amounted to 0.34 µM.

For `Cc1cnc(-c2cc(C(=O)Nc3cc(Cl)cc(NS(C)(=O)=O)c3)cn2C)c(F)c1` [Example 580], the EC50 is 0.156 µM.

Turning to `Cn1cc(C(=O)Nc2cc(Cl)cc(NS(=O)(=O)CCO)c2)cc1-c1ncc(F)cc1F` [Example 581], the EC50 turned out to be 1.68 µM.

As for `Cc1sc(C(=O)Nc2cc(Cl)cc(NS(=O)(=O)CCO)c2)cc1-c1ncc(OC(C)C)cn1` [Example 582], the EC50 was 0.21 µM.

In the case of `Cc1sc(C(=O)Nc2cc(Cl)cc(NS(C)(=O)=O)c2)cc1-c1ncc(O)cn1` [Example 583], the EC50 came to 0.0431 µM.

With `CCc1sc(C(=O)Nc2cc(Cl)cc(NS(C)(=O)=O)c2)cc1-c1ncccc1F` [Example 587], the EC50 amounted to 0.128 µM.

Turning to `CCc1sc(C(=O)Nc2cc(Cl)cc(NS(C)(=O)=O)c2)cc1-c1ncc(F)cc1F` [Example 588], the EC50 stood at 0.461 µM.

As for `CCc1sc(C(=O)Nc2cc(Cl)cc(NS(C)(=O)=O)c2)cc1-c1ccc(F)cn1` [Example 589], the EC50 was found to be 0.117 µM.

Take `Cn1cc(C(=O)Nc2cc(Cl)cc(NS(C)(=O)=O)c2)cc1-c1ccc(N2CCN(C(=O)C(C)(C)C)CC2)cn1` [Example 591]: the EC50 worked out at 0.13 µM.

On to `Cn1cc(C(=O)Nc2cc(Cl)cc(NS(C)(=O)=O)c2)cc1-c1ccc(N2CCN(C(=O)C3CCCC3)CC2)cn1` [Example 592], for which the EC50 was determined as 0.303 µM.

As for `Cn1cc(C(=O)Nc2cc(Cl)cc(NS(C)(=O)=O)c2)cc1-c1ccc(N2CCN(C(=O)C3CCC3)CC2)cn1` [Example 593], the EC50 came to 0.17 µM.

On to `Cn1cc(C(=O)Nc2cc(Cl)cc(NS(C)(=O)=O)c2)cc1-c1ccc(N2CCN(C(=O)C3CC3)CC2)cn1` [Example 594], for which the EC50 was determined as 0.14 µM.

With `Cc1cc(N2CCC(F)(F)CC2)cnc1-c1cc(C(=O)Nc2cc(Cl)cc(NS(C)(=O)=O)c2)cn1C` [Example 600], the EC50 was 0.186 µM.

`Cc1cc(N2CCC(F)(F)CC2)cnc1-c1cc(C(=O)Nc2cc(Cl)cc(NS(C)(=O)=O)c2)sc1C` [Example 602]: the EC50 worked out at 0.18 µM.

As for `Cc1ccnc(OCc2cncc(F)c2)c1-c1cc(C(=O)Nc2cc(Cl)cc(NS(C)(=O)=O)c2)cn1C` [Example 624], the EC50 is 0.442 µM.

Turning to `Cn1cc(C(=O)Nc2cc(Cl)cc(NS(C)(=O)=O)c2)cc1-c1ncc(F)cc1OCc1nnnn1C` [Example 625], the EC50 amounted to 1.01 µM.

Turning to `Cc1sc(C(=O)Nc2cc(Cl)cc(NS(C)(=O)=O)c2)cc1-c1ncc(OC2CNC2)cc1F` [Example 637], the EC50 came to 0.427 µM.

As for `CN1CC(Oc2cnc(-c3cc(C(=O)Nc4cc(Cl)cc(NS(C)(=O)=O)c4)cn3CC(F)(F)F)c(F)c2)C1` [Example 638], the EC50 turned out to be 0.0621 µM.

As to `CN1CC[C@H](Oc2cnc(-c3cc(C(=O)Nc4cc(Cl)cc(NS(C)(=O)=O)c4)cn3C)c(F)c2)C1` [Example 639, N-(3-chloro-5-methanesulfonamidophenyl)-5-(3-fluoro-5-{[(3S)-1-methylpyrrolidin-3-yl]oxy}pyridin-2-yl)-1-methylpyrrole-3-carboxamide], the EC50 was determined as 0.0266 µM.

Turning to `CN1CC[C@@H](Oc2cnc(-c3cc(C(=O)Nc4cc(Cl)cc(NS(C)(=O)=O)c4)cn3C)c(F)c2)C1` [Example 640], the EC50 was 0.0162 µM.

In the case of `CN1CC[C@@H](Oc2cnc(-c3cc(C(=O)Nc4cc(Cl)cc(NS(C)(=O)=O)c4)cn3CC(F)(F)F)nc2)C1` [Example 641], the EC50 worked out at 0.0552 µM.

For `CN1CC[C@H](Oc2cnc(-c3cc(C(=O)Nc4cc(Cl)cc(NS(C)(=O)=O)c4)cn3CC(F)(F)F)nc2)C1` [Example 642], the EC50 worked out at 0.0945 µM.

As for `Cc1sc(C(=O)Nc2cc(Cl)cc(NS(C)(=O)=O)c2)cc1-c1ccc(P(C)(C)=O)cn1` [Example 647], the half-maximal effective concentration (EC50) came to 0.998 µM.

With `Cc1sc(C(=O)Nc2cc(Cl)cc(NS(C)(=O)=O)c2)cc1-c1ncc(P(C)(C)=O)cn1` [Example 648], the EC50 was 0.471 µM.

With `CS(=O)(=O)Nc1cc(Cl)cc(NC(=O)c2cc(-c3ncc(OC4CN(S(C)(=O)=O)C4)cn3)n(CC(F)(F)F)c2)c1` [Example 651], the EC50 was 0.535 µM.

As to `CS(=O)(=O)Nc1cc(Cl)cc(NC(=O)c2cc(-c3ncc(F)cn3)n(C3CNC3)c2)c1` [Example 652], the EC50 was 3.77 µM.

`Cc1sc(C(=O)Nc2cc(Cl)cc(NS(C)(=O)=O)c2)cc1-c1ncc(C(C)(O)C2CN(C)C2)cc1F` (centres unmarked) [Example 653]: the EC50 worked out at 0.292 µM.

`Cc1cc(F)cc(C#N)c1-c1cc(C(=O)Nc2cc(Cl)cc(NS(C)(=O)=O)c2)cn1C` [Example 659]: the EC50 was above 10 µM.

As for `Cc1sc(C(=O)Nc2cc(Cl)cc(NS(C)(=O)=O)c2)cc1N1C(=O)N(C)C(C)(c2ccccn2)C1=O` (centres unmarked) [Example 660], the EC50 is above 10 µM.

As to `Cc1cc(C(=O)Nc2cc(Cl)cc(NS(C)(=O)=O)c2)cn1-c1ncc(OC(C)(C)C)cc1F` [Example 662], the EC50 was found to be 0.14 µM.

Consider `Cc1cc(C(=O)Nc2cc(Cl)cc(NS(C)(=O)=O)c2)cn1-c1ccc(OC(C)(C)C)cn1` [Example 663], for which the EC50 was 0.124 µM.

As to `Cc1cc(C(=O)Nc2cc(Cl)cc(NS(C)(=O)=O)c2)cn1-c1ncc(F)cc1-c1cncc(F)c1` [Example 666], the EC50 is 0.427 µM.

As for `CC(C)n1cc(C(=O)Nc2cc(Cl)cc(NS(C)(=O)=O)c2)cc1-c1ncc(F)cn1` [Example 667], the EC50 was determined as 0.804 µM.

With `Cc1cc(C(=O)Nc2cc(Cl)cc(NS(C)(=O)=O)c2)cn1-c1ccc(OC2COC2)cn1` [Example 668], the EC50 came to 0.22 µM.

Regarding `Cc1sc(C(=O)Nc2cc(Cl)cc(NS(C)(=O)=O)c2)cc1-c1ncc(OC(C)(C)C(=O)O)cn1` [Example 670], the EC50 is above 10 µM.

With `Cc1sc(C(=O)Nc2cc(Cl)cc(NS(C)(=O)=O)c2)cc1-c1ncc(OC(C)C(=O)O)cn1` (centres unmarked) [Example 671], the EC50 was above 10 µM.

Turning to `Cc1cc(C(=O)Nc2cc(Cl)cc(NS(C)(=O)=O)c2)cn1-c1ncc(N2CC(F)(F)C2)cc1OC(C)C` [Example 672], the EC50 was found to be 0.154 µM.

As for `Cc1cc(C(=O)Nc2cc(Cl)cc(NS(C)(=O)=O)c2)cn1-c1ncc(N2CC(F)(F)C2)cc1OC1CCC1` [Example 673], the EC50 was found to be 0.13 µM.

With `Cc1sc(C(=O)Nc2cc(Cl)cc(NS(C)(=O)=O)c2)cc1-c1ncc(OC(C)CO)cn1` (centres unmarked) [Example 677], the EC50 was 0.0137 µM.

Consider `CN1CC(Oc2cnc(-c3cc(C(=O)Nc4cc(Cl)cc(NS(C)(=O)=O)c4)cn3CC(F)F)nc2)C1` [Example 679], for which the concentration for a half-maximal effect (EC50) came out at 0.196 µM.

As to `Cc1sc(C(=O)Nc2cc(Cl)cc(NS(C)(=O)=O)c2)cc1-c1ncc(C2(O)CN(C)C2)cc1F` [Example 681], the EC50 was found to be 0.133 µM.

For `Cc1sc(C(=O)Nc2cc(Cl)cc(NS(C)(=O)=O)c2)c(F)c1-c1ncc(OC(C)C)cn1` [Example 683], the EC50 was above 10 µM.

For the compound `Cc1cccnc1-c1csc(C(=O)Nc2cc(Cl)cc(NS(C)(=O)=O)c2)c1C` [Example 684], the EC50 was above 10 µM.

Take `Cn1cc(C(=O)Nc2cc(Cl)cc(NS(C)(=O)=O)c2)cc1-c1ncc(OC2CN(C(=O)C3CC3)C2)cc1F` [Example 697]: the EC50 came to 0.329 µM.

With `CCS(=O)(=O)Nc1cc(Cl)cc(NC(=O)c2cc(-c3ncc(C(F)(F)F)cc3C)c(C)s2)c1` [Example 700], the EC50 was 0.871 µM.

With `CS(=O)(=O)Nc1cc(Cl)cc(NC(=O)c2cc(-c3ccc(F)cn3)n(S(C)(=O)=O)c2)c1` [Example 701], the concentration for a half-maximal effect (EC50) came out at 0.638 µM.

On to `COc1ccc(F)c(-c2cc(C(=O)Nc3cc(Cl)cc(NS(C)(=O)=O)c3)cn2C)n1` [Example 703], for which the EC50 was 0.387 µM.

Consider `Cc1sc(C(=O)Nc2cc(Cl)cc(NS(C)(=O)=O)c2)cc1-c1ncc(S(C)(=O)=O)cn1` [Example 711], for which the EC50 came to 0.17 µM.

As to `CS(=O)(=O)Nc1cc(Cl)cc(NC(=O)c2cc(-c3ncc(F)cn3)n(C3CC3)c2)c1` [Example 712], the EC50 was determined as 0.312 µM.

On to `Cn1cc(C(=O)Nc2cc(Cl)cc(NS(C)(=O)=O)c2)cc1-c1ncc(N2CCN(C(=O)C3CC3)CC2)cc1F` [Example 714], for which the EC50 is 0.181 µM.

`Cc1sc(C(=O)Nc2cc(Cl)cc(NS(C)(=O)=O)c2)nc1-c1ccc(F)cn1` [Example 716]: the EC50 is above 10 µM.

Turning to `Cc1nc(COc2cc(F)cnc2-c2cc(C(=O)Nc3cc(Cl)cc(NS(C)(=O)=O)c3)cn2C)cs1` [Example 724], the half-maximal effective concentration (EC50) is 0.224 µM.

Regarding `Cc1noc(C)c1COc1cc(F)cnc1-c1cc(C(=O)Nc2cc(Cl)cc(NS(C)(=O)=O)c2)cn1C` [Example 725], the EC50 is 0.625 µM.

`Cn1cc(C(=O)Nc2cc(Cl)cc(NS(C)(=O)=O)c2)cc1-c1ncc(F)cc1OCc1cnnn1C` [Example 726]: the EC50 came out at 0.32 µM.

In the case of `Cn1cc(C(=O)Nc2cc(Cl)cc(NS(C)(=O)=O)c2)cc1-c1ccccc1/C=C/c1cncc(F)c1` [Example 727], the EC50 was 0.71 µM.

Regarding `Cn1cc(C(=O)Nc2cc(Cl)cc(NS(C)(=O)=O)c2)cc1-c1ncc(F)cc1/C=C/c1cncc(F)c1` [Example 729], the concentration giving a half-maximal response (EC50) is 0.382 µM.

As to `CCc1cncc(COc2cccnc2-c2cc(C(=O)Nc3cc(Cl)cc(NS(C)(=O)=O)c3)cn2C)c1` [Example 730], the 50% effective concentration (EC50) came out at 0.171 µM.

Staying with this test, now noted: Homo sapiens, HCT-116, circBRIP1, HCT116 cells; cell carries no mark, SyBr or Taqman not indicated; read-out: DHX9 Cellular Target Engagement EC50.
On to `Cc1sc(C(=O)Nc2cc(Cl)cc(NS(C)(=O)=O)c2)cc1-c1c(F)cc(F)c[n+]1[O-]` [Example 736], for which the EC50 is 0.372 µM.
